From US20100179093A1, “Neoropeptide-2-Receptor (Y-2R) Agonists” (priority 2008, published 2010)

Tests used:
Format in all cases: cell-based
[1] = target: T1, Y1R (Homo sapiens, UniProt P25929); experiment: CaFlux Assay (FLIPR), Y1R
T1 sequence (P25929 1-384): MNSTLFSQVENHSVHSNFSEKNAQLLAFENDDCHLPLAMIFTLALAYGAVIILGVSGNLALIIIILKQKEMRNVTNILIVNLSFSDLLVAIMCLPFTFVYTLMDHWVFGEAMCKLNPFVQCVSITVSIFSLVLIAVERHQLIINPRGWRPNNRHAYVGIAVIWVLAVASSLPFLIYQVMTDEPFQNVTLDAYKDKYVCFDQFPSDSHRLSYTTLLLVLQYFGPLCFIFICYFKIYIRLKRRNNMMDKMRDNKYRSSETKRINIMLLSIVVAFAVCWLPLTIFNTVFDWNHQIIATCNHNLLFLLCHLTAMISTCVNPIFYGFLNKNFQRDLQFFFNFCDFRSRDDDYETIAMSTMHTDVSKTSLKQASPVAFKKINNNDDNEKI

[2] = target: T2, Y5R (Homo sapiens, UniProt Q15761); experiment: CaFlux Assay (FLIPR), Y5R; conditions: for Emax: read-out: Y5R FLIPR, percentage in parentheses under the EC50;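 for Emax: percent of the maximal response of the positive control agonist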
T2 sequence (Q15761 1-445): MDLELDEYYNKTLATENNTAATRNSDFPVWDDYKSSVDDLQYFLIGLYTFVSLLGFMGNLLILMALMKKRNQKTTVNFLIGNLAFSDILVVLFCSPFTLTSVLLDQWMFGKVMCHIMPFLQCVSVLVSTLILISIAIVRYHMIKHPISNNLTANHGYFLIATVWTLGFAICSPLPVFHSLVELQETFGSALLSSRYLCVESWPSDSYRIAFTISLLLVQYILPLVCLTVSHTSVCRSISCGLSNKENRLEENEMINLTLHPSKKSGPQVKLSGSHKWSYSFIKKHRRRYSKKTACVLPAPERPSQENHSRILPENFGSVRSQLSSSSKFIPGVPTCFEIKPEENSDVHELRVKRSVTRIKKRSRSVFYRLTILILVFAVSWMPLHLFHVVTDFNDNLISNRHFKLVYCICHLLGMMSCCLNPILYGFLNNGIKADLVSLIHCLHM

[3] = target: T3, hNPY2R (Homo sapiens, UniProt P49146); experiment: cAMP Agonist Assay, HEK293/hNPY2R cells; parameters: expressed in transfected cells; host or cells: HEK293/hNPY2R (G418 selection)
T3 sequence (P49146 1-381): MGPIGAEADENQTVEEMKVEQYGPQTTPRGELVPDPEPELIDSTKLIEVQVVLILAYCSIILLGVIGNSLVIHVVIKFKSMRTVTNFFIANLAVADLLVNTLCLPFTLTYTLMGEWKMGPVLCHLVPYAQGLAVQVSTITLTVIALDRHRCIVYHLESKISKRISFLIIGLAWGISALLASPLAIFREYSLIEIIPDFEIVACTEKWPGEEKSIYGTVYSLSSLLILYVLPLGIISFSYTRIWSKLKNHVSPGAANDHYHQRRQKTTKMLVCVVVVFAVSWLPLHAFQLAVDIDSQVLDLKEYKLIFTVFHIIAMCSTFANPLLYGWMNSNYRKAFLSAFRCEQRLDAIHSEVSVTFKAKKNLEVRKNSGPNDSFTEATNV
Protocol: On the first day, medium was discarded, and the monolayer cells were washed with 10 mL PBS per flask (T225). […] The flask was gently tapped and the cell suspension was pooled. Each flask was rinsed with 10 mL plating medium and centrifuged at 1000 rpm for 5 min. The suspension was pooled and counted. The suspension was resuspended in plating medium at a density of 2.0×10^5 cells/mL for HEK293/hNPY2R. 50 microliters of cells (HEK293/hNPY2R-10,000 cells/well) were transferred into the 384-well plate using Multi-drop dispenser. The plates were incubated at 37° C. overnight. […] The media and reagents were allowed to come to room temperature. Before the dilutions were prepared, the stock solution of stimulating compound in dimethyl sulphoxide (DMSO, Sigma, cat #D2650) was allowed to warm up to 32 C for 5-10 min. […] The cell medium was tapped off with a gentle inversion of the cell plate on a paper towel. 50 μL of stimulation medium was placed per well (each concentration done in four replicates). The plates were incubated at room temperature for 30 min, and the cells were checked under a microscope for toxicity. After 30 minutes of treatment, the stimulation media was discarded and 50 mL/well of Assay Lysis Buffer (provided in the Tropix kit) was added. The plates were incubated for 45 min@37° C. 20 μL of the lysate was transferred from stimulation plates into the pre-coated antibody plates (384-well) from the Tropix kit. 10 μL of AP conjugate and 20 μL of anti-cAMP antibody was added. The plates were incubated at room temperature while shaking for 1 hour. The plates were then washed 5 times with Wash Buffer, 70 μL per well for each wash. The plates were tapped to dry. 30 μL/well of CSPD/Saphire-II RTU substrate/enhancer solution was added and incubated for 45 min @ RT (shake). Signal for 1 sec/well in a Luminometer.

[4] = target: T3, hNPY2R; experiment: CaFlux Assay (FLIPR), Y2R; parameters: expressed in transfected cells; host or cells: HEK-293 stably expressing G protein chimera Gaqi9
Protocol: Hek-293 cells were stably transfected with the G protein chimera Gaqi9 and the hygromycin-B resistance gene were further transfected with the human NPY2 receptor and G418 antibiotic selection. Following selection in both hygromycin-B and G418, individual clones were assayed for their response to PYY. The transfected cells were cultured in DMEM medium supplemented with 10% fetal bovine serum, 50 μg/mL hygromycin-B 2 mM glutamine, 100 U/mL penicillin, 100 μg/mL streptomycin and 250 μg/mL G418. Cells are harvested with trypsin-EDTA and counted using ViaCount reagent. The cell suspension volume is adjusted to 4.8×10^5 cells/mL with complete growth media. Aliquots of 25 μL are dispensed into 384 well Poly-D Lysine coated black/clear microplates (Falcon) and the microplates were placed in a 37° C. CO2 incubator overnight. Loading Buffer (Calcium-3 Assay Kit, Molecular Devices) was prepared by dissolving the contents of one vial (Express Kit) into 1000 mL Hank's Balanced Salt Solution containing 20 mM HEPES and 5 mM probenecid. Aliquots of 25 μL of diluted dye were dispensed into the cell plates and the plates are then incubated for 1 hour at 37° C. During the incubation, test compounds were prepared at 3.5× the desired concentration in HBSS (20 mM HEPES)/0.05% BSA/1% DMSO and transferred to a 384 well plate for use on FLIPR. After incubation, both the cell and compound plates were brought to the FLIPR and 20 μL of the diluted compounds were transferred to the cell plates by the FLIPR. During the assay, fluorescence readings were taken simultaneously from all 384 wells of the cell plate every 1.5 seconds. Five readings were taken to establish a stable baseline, and then 20 μL of sample was rapidly (30 μL/sec) and simultaneously added to each well of the cell plate. The fluorescence was continuously monitored before, during and after sample addition for a total elapsed time of 100 seconds. Responses (increase in peak fluorescence) in each well following addition were determined. The initial fluorescence reading from each well, prior to ligand stimulation, was used as a zero baseline value for the data from that well. The responses are expressed as % of maximal response of the positive control.

[5] = target: Y4R (Homo sapiens, UniProt P50391); experiment: CaFlux Assay (FLIPR), Y4R
Y4R, sequence (P50391 whole entry): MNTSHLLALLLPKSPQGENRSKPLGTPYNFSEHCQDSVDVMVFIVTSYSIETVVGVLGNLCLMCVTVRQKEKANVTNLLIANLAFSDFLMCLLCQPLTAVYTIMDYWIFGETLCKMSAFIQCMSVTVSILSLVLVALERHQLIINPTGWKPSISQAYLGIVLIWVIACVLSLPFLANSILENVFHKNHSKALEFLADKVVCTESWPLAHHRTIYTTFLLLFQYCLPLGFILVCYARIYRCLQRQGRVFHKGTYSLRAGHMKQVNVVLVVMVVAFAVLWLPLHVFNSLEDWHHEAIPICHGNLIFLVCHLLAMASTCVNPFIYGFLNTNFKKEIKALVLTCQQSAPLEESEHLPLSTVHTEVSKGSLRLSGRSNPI

| SMILES | EC50 [1] [nM] | EC50 [2] [nM] | Emax [2] [%] | EC50 [3] [nM] | EC50 [4] [nM] | EC50 [5] [nM] |
| --- | --- | --- | --- | --- | --- | --- |
| CCCCCCCCCCCCCCCC(=O)NCCC(=O)N[C@@H](CCC(=O)NCCCC[C@H](NC(=O)[C@@H](N)[C@@H](C)CC)C(=O)N1CCN(c2ccc3ncn(CC(=O)N[C@@H](CCCNC(=N)N)C(=O)N[C@@H](Cc4c[nH]cn4)C(=O)N[C@@H](Cc4ccc(O)cc4)C(=O)N[C@@H](CC(C)C)C(=O)N[C@@H](CC(N)=O)C(=O)N[C@@H](Cc4c[nH]c5ccccc45)C(=O)N[C@H](C(=O)N[C@H](C(=O)N[C@@H](CCCNC(=N)N)C(=O)N[C@@H](CCC(N)=O)C(=O)N(C)[C@@H](CCCNC(=N)N)C(=O)N[C@@H](Cc4ccc(O)cc4)C(N)=O)[C@@H](C)O)C(C)C)c(=O)c3c2)CC1)C(=O)O [Example 26] | > 5000 | 129 | 70 | 0.15 | 0.045 | > 5000 |
| CC[C@H](C)[C@H](N)C(=O)N[C@@H](CCCCNC(=O)CC[C@H](NC(=O)CC[C@H](NC(=O)CCCCCCCCCCCCCCCBr)C(=O)O)C(=O)O)C(=O)N1CCN(c2ccc3ncn(CC(=O)N[C@@H](CCCNC(=N)N)C(=O)N[C@@H](Cc4c[nH]cn4)C(=O)N[C@@H](Cc4ccc(O)cc4)C(=O)N[C@@H](CC(C)C)C(=O)N[C@@H](CC(N)=O)C(=O)N[C@@H](Cc4c[nH]c5ccccc45)C(=O)N[C@H](C(=O)N[C@H](C(=O)N[C@@H](CCCNC(=N)N)C(=O)N[C@@H](CCC(N)=O)C(=O)N(C)[C@@H](CCCNC(=N)N)C(=O)N[C@@H](Cc4ccc(O)cc4)C(N)=O)[C@@H](C)O)C(C)C)c(=O)c3c2)CC1 [Example 27] | > 5000 | 2540 |  | 0.4 | 0.23 | > 5000 |
| CCCCCCCCCCCCCCCC(=O)N[C@@H](CCC(=O)N[C@@H](CCC(=O)NCCCC[C@H](NC(=O)[C@@H](NC(=O)[C@@H]1CCC(=O)N1)[C@@H](C)CC)C(=O)N1CCN(c2ccc3ncn(CC(=O)N[C@@H](CCCNC(=N)N)C(=O)N[C@@H](Cc4c[nH]cn4)C(=O)N[C@@H](Cc4ccc(O)cc4)C(=O)N[C@@H](CC(C)C)C(=O)N[C@@H](CC(N)=O)C(=O)N[C@@H](Cc4c[nH]c5ccccc45)C(=O)N[C@H](C(=O)N[C@H](C(=O)N[C@@H](CCCNC(=N)N)C(=O)N[C@@H](CCC(N)=O)C(=O)N(C)[C@@H](CCCNC(=N)N)C(=O)N[C@@H](Cc4ccc(O)cc4)C(N)=O)[C@@H](C)O)C(C)C)c(=O)c3c2)CC1)C(=O)O)C(=O)O [Example 28] | > 5000 | 2060 |  | 0.21 | 0.176 | > 5000 |
| CCCCCCCCCCCCCCCCCCCC(=O)NCCCCCC(=O)NCCCC[C@H](NC(=O)[C@@H](N)[C@@H](C)CC)C(=O)N1CCN(c2ccc3ncn(CC(=O)N[C@@H](CCCNC(=N)N)C(=O)N[C@@H](Cc4c[nH]cn4)C(=O)N[C@@H](Cc4ccc(O)cc4)C(=O)N[C@@H](CC(C)C)C(=O)N[C@@H](CC(N)=O)C(=O)N[C@@H](Cc4c[nH]c5ccccc45)C(=O)N[C@H](C(=O)N[C@H](C(=O)N[C@@H](CCCNC(=N)N)C(=O)N[C@@H](CCC(N)=O)C(=O)N(C)[C@@H](CCCNC(=N)N)C(=O)N[C@@H](Cc4ccc(O)cc4)C(N)=O)[C@@H](C)O)C(C)C)c(=O)c3c2)CC1 [Example 30] | > 5000 | 306 | 28 | 0.14 | 0.96 | > 5000 |
| CCCCCCCCCCCCCCCCCCCC(=O)N[C@@H](CCC(=O)N[C@@H](CCC(=O)NCCCC[C@H](NC(=O)[C@@H](N)[C@@H](C)CC)C(=O)N1CCN(c2ccc3ncn(CC(=O)N[C@@H](CCCNC(=N)N)C(=O)N[C@@H](Cc4c[nH]cn4)C(=O)N[C@@H](Cc4ccc(O)cc4)C(=O)N[C@@H](CC(C)C)C(=O)N[C@@H](CC(N)=O)C(=O)N[C@@H](Cc4c[nH]c5ccccc45)C(=O)N[C@H](C(=O)N[C@H](C(=O)N[C@@H](CCCNC(=N)N)C(=O)N[C@@H](CCC(N)=O)C(=O)N(C)[C@@H](CCCNC(=N)N)C(=O)N[C@@H](Cc4ccc(O)cc4)C(N)=O)[C@@H](C)O)C(C)C)c(=O)c3c2)CC1)C(=O)O)C(=O)O [Example 31] | > 5000 | 634 | 60 | 0.07 | 0.091 | > 5000 |
| CCCCCCCCCCCCCCCC(=O)NCCOCCOCCOCCOCCC(=O)NCCCC[C@H](NC(=O)[C@@H](N)[C@@H](C)CC)C(=O)N1CCN(c2ccc3ncn(CC(=O)N[C@@H](CCCNC(=N)N)C(=O)N[C@@H](Cc4c[nH]cn4)C(=O)N[C@@H](Cc4ccc(O)cc4)C(=O)N[C@@H](CC(C)C)C(=O)N[C@@H](CC(N)=O)C(=O)N[C@@H](Cc4c[nH]c5ccccc45)C(=O)N[C@H](C(=O)N[C@H](C(=O)N[C@@H](CCCNC(=N)N)C(=O)N[C@@H](CCC(N)=O)C(=O)N(C)[C@@H](CCCNC(=N)N)C(=O)N[C@@H](Cc4ccc(O)cc4)C(N)=O)[C@@H](C)O)C(C)C)c(=O)c3c2)CC1 [Example 32] | > 5000 | 973 | 28 | 0.19 | 0.26 | > 5000 |
| CCCCCCCCCCCCCCCCCCCC(=O)NCCOCCOCCOCCOCCC(=O)NCCCC[C@H](NC(=O)[C@@H](N)[C@@H](C)CC)C(=O)N1CCN(c2ccc3ncn(CC(=O)N[C@@H](CCCNC(=N)N)C(=O)N[C@@H](Cc4c[nH]cn4)C(=O)N[C@@H](Cc4ccc(O)cc4)C(=O)N[C@@H](CC(C)C)C(=O)N[C@@H](CC(N)=O)C(=O)N[C@@H](Cc4c[nH]c5ccccc45)C(=O)N[C@H](C(=O)N[C@H](C(=O)N[C@@H](CCCNC(=N)N)C(=O)N[C@@H](CCC(N)=O)C(=O)N(C)[C@@H](CCCNC(=N)N)C(=O)N[C@@H](Cc4ccc(O)cc4)C(N)=O)[C@@H](C)O)C(C)C)c(=O)c3c2)CC1 [Example 33] | > 5000 | 241 | 53 | 0.13 | 1.08 | > 5000 |
| CCCCCCCCCCCCCCCC(=O)NCCOCCOCCOCCC(=O)NCCCC[C@H](NC(=O)[C@@H](N)[C@@H](C)CC)C(=O)N1CCN(c2ccc3ncn(CC(=O)N[C@@H](CCCNC(=N)N)C(=O)N[C@@H](Cc4c[nH]cn4)C(=O)N[C@@H](Cc4ccc(O)cc4)C(=O)N[C@@H](CC(C)C)C(=O)N[C@@H](CC(N)=O)C(=O)N[C@@H](Cc4c[nH]c5ccccc45)C(=O)N[C@H](C(=O)N[C@H](C(=O)N[C@@H](CCCNC(=N)N)C(=O)N[C@@H](CCC(N)=O)C(=O)N(C)[C@@H](CCCNC(=N)N)C(=O)N[C@@H](Cc4ccc(O)cc4)C(N)=O)[C@@H](C)O)C(C)C)c(=O)c3c2)CC1 [Example 34] | > 5000 | 2340 | 80 | 0.1 | 0.003 | > 5000 |
| CCCCCCCCCCCCCCCCCCCC(=O)NCCOCCOCCOCCC(=O)NCCCC[C@H](NC(=O)[C@@H](N)[C@@H](C)CC)C(=O)N1CCN(c2ccc3ncn(CC(=O)N[C@@H](CCCNC(=N)N)C(=O)N[C@@H](Cc4c[nH]cn4)C(=O)N[C@@H](Cc4ccc(O)cc4)C(=O)N[C@@H](CC(C)C)C(=O)N[C@@H](CC(N)=O)C(=O)N[C@@H](Cc4c[nH]c5ccccc45)C(=O)N[C@H](C(=O)N[C@H](C(=O)N[C@@H](CCCNC(=N)N)C(=O)N[C@@H](CCC(N)=O)C(=O)N(C)[C@@H](CCCNC(=N)N)C(=O)N[C@@H](Cc4ccc(O)cc4)C(N)=O)[C@@H](C)O)C(C)C)c(=O)c3c2)CC1 [Example 35] | > 5000 | 501 | 65 | 0.11 | 1.02 | > 5000 |
